Data published in US6737383B1, “Herbicidal oxadiazolidines” (priority 1999, dated 2004).

Tests used:
corn = test: Test B pre/postemergence corn; assay type: in vivo, Zea mays
How it was run: (§1)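 Test chemicals in a non-phytotoxic solvent mixture with surfactant were sprayed preemergence onto planted seeds and postemergence onto plants 2 to 18 cm tall (1- to 4-leaf stage). After twelve to sixteen days in a greenhouse, injury was visually rated against untreated controls from 0 (no effect) to 10 (complete control).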

morningglory = test: Test B pre/postemergence morningglory; assay type: in vivo, Ipomoea hederacea
How it was run: as §1

purple nutsedge = test: Test B pre/postemergence purple nutsedge; assay type: in vivo, Cyperus rotundus
How it was run: as §1

sugar beet = test: Test B pre/postemergence sugar beet; assay type: in vivo, Beta vulgaris
How it was run: as §1

wheat = test: Test B pre/postemergence wheat; assay type: in vivo, Triticum aestivum
How it was run: as §1

bedstraw = test: Test B pre/postemergence bedstraw; assay type: in vivo, Galium aparine
How it was run: as §1

cocklebur = test: Test B pre/postemergence cocklebur; assay type: in vivo, Xanthium strumarium
How it was run: as §1

soybean = test: Test B pre/postemergence soybean; assay type: in vivo, Glycine max
How it was run: as §1

crabgrass = test: Test B pre/postemergence crabgrass; assay type: in vivo, Digitaria sanguinalis
How it was run: as §1

blackgrass = test: Test B pre/postemergence blackgrass; assay type: in vivo, Alopecurus myosuroides
How it was run: as §1

surinam grass = test: Test B pre/postemergence surinam grass; assay type: in vivo, Brachiaria decumbens
How it was run: as §1

velvetleaf = test: Test B pre/postemergence velvetleaf; assay type: in vivo, Abutilon theophrasti
How it was run: as §1

rape = test: Test B pre/postemergence rape; assay type: in vivo, Brassica napus
How it was run: as §1

giant foxtail = test: Test B pre/postemergence giant foxtail; assay type: in vivo, Setaria faberii
How it was run: as §1

pigweed = test: Test B pre/postemergence pigweed; assay type: in vivo, Amaranthus retroflexus
How it was run: as §1

wild oat = test: Test B pre/postemergence wild oat; assay type: in vivo, Avena fatua
How it was run: as §1

[1] = Postemergence, Rate 62 g/ha, scale 0 to 10, 0 is no effect, 10 is complete control
[2] = Postemergence, Rate 125 g/ha, scale of 0 to 10 where 0 is no effect and 10 is complete control
[3] = Postemergence, Rate 500 g/ha, scale 0 (no effect) to 10 (complete control)
[4] = Preemergence, Rate 250 g/ha, scale 0 (no effect) to 10 (complete control)
[5] = Rate 62 g/ha, Preemergence, scale 0 to 10
[6] = Rate 125 g/ha, Preemergence, scale 0 to 10 (0 no effect, 10 complete control)
[7] = Rate 250 g/ha, Postemergence, scale 0 to 10, 0 is no effect, 10 is complete control
[8] = Rate 500 g/ha, Preemergence, scale 0 to 10 (0 no effect, 10 complete control)

## COC1CCC(Cn2c(=O)on(C(=O)N(c3ccc(F)cc3)C(C)C)c2=O)=NO1 (centres unmarked) [Compound 766]
corn; [1]
  Plant response rating, Corn: 0
corn; [2]
  Corn plant response rating: 0
corn; [3]
  Corn plant response rating: 4
corn; [4]
  Corn plant response rating: 0
corn; [5]
  Corn plant response rating: 0
corn; [6]
  Corn plant response rating: 0
corn; [7]
  Corn plant response rating: 4
corn; [8]
  Corn plant response rating: 3
morningglory; [1]
  Plant response rating, Morningglory: 2
morningglory; [2]
  Morningglory plant response rating: 2
morningglory; [3]
  Morningglory plant response rating: 2
morningglory; [5]
  Morningglory plant response rating: 2
morningglory; [6]
  Morningglory plant response rating: 3
morningglory; [7]
  Morningglory plant response rating: 2
morningglory; [8]
  Morningglory plant response rating: 3
Purple nutsedge; [1]
  Plant response rating, Nutsedge: 0
Purple nutsedge; [2]
  Nutsedge plant response rating: 3
Purple nutsedge; [3]
  Nutsedge plant response rating: 5
Purple nutsedge; [5]
  Nutsedge plant response rating: 0
Purple nutsedge; [6]
  Nutsedge plant response rating: 0
Purple nutsedge; [8]
  Nutsedge plant response rating: 4
Sugar beet; [1]
  Plant response rating, Sugarbeets: 0
Sugar beet; [3]
  Sugarbeets plant response rating: 2
Sugar beet; [5]
  Sugarbeets plant response rating: 2
Sugar beet; [6]
  Sugarbeets plant response rating: 6
Sugar beet; [7]
  Sugarbeets plant response rating: 2
Sugar beet; [8]
  Sugarbeets plant response rating: 9
wheat; [1]
  Plant response rating, Wheat: 0
wheat; [3]
  Wheat plant response rating: 3
wheat; [5]
  Wheat plant response rating: 0
wheat; [6]
  Wheat plant response rating: 4
wheat; [7]
  Wheat plant response rating: 3
wheat; [8]
  Wheat plant response rating: 10
bedstraw; [1]
  Plant response rating, Bedstraw: 0
bedstraw; [2]
  Bedstraw plant response rating: 0
bedstraw; [3]
  Bedstraw plant response rating: 3
bedstraw; [4]
  Bedstraw plant response rating: 10
bedstraw; [5]
  Bedstraw plant response rating: 4
bedstraw; [6]
  Bedstraw plant response rating: 9
bedstraw; [7]
  Bedstraw plant response rating: 0
bedstraw; [8]
  Bedstraw plant response rating: 9
cocklebur; [1]
  Plant response rating, Cocklebur: 0
cocklebur; [2]
  Cocklebur plant response rating: 0
cocklebur; [3]
  Cocklebur plant response rating: 6
cocklebur; [5]
  Cocklebur plant response rating: 0
cocklebur; [6]
  Cocklebur plant response rating: 0
cocklebur; [7]
  Cocklebur plant response rating: 2
cocklebur; [8]
  Cocklebur plant response rating: 0
soybean; [1]
  Plant response rating, Soybean: 2
soybean; [3]
  Soybean plant response rating: 4
soybean; [5]
  Soybean plant response rating: 0
soybean; [6]
  Soybean plant response rating: 0
soybean; [7]
  Soybean plant response rating: 4
soybean; [8]
  Soybean plant response rating: 0
crabgrass; [1]
  Plant response rating, Crabgrass: 2
crabgrass; [2]
  Crabgrass plant response rating: 6
crabgrass; [3]
  Crabgrass plant response rating: 9
crabgrass; [4]
  Crabgrass plant response rating: 10
crabgrass; [5]
  Crabgrass plant response rating: 9
crabgrass; [6]
  Crabgrass plant response rating: 9
crabgrass; [7]
  Crabgrass plant response rating: 6
crabgrass; [8]
  Crabgrass plant response rating: 10
blackgrass; [1]
  Plant response rating, Blackgrass: 0
blackgrass; [2]
  Blackgrass plant response rating: 5
blackgrass; [4]
  Blackgrass plant response rating: 8
blackgrass; [5]
  Blackgrass plant response rating: 0
blackgrass; [6]
  Blackgrass plant response rating: 7
blackgrass; [7]
  Blackgrass plant response rating: 6
blackgrass; [8]
  Blackgrass plant response rating: 9
Surinam grass; [1]
  Plant response rating, B. signalgrass: 0
Surinam grass; [2]
  B. signalgrass plant response rating: 2
Surinam grass; [4]
  B. signalgrass plant response rating: 10
Surinam grass; Rate 62 g/ha, Preemergence, scale 0 (no effect) to 10 (complete control)
  B. signalgrass plant response rating: 6
Surinam grass; [6]
  B. signalgrass plant response rating: 8
Surinam grass; [7]
  B. signalgrass plant response rating: 8
Surinam grass; [8]
  B. signalgrass plant response rating: 10
velvetleaf; [1]
  Plant response rating, Velvetleaf: 0
velvetleaf; [3]
  Velvetleaf plant response rating: 5
velvetleaf; [5]
  Velvetleaf plant response rating: 5
velvetleaf; [6]
  Velvetleaf plant response rating: 5
velvetleaf; [7]
  Velvetleaf plant response rating: 3
velvetleaf; [8]
  Velvetleaf plant response rating: 10
rape; [1]
  Plant response rating, Rape: 0
rape; [2]
  Rape plant response rating: 0
rape; [3]
  Rape plant response rating: 0
rape; [5]
  Rape plant response rating: 2
rape; [6]
  Rape plant response rating: 5
rape; [7]
  Rape plant response rating: 0
rape; [8]
  Rape plant response rating: 9
Giant foxtail; [1]
  Plant response rating, Giant foxtail: 0
Giant foxtail; [2]
  Giant foxtail plant response rating: 8
Giant foxtail; [3]
  Giant foxtail plant response rating: 9
Giant foxtail; [4]
  Giant foxtail plant response rating: 9
Giant foxtail; [5]
  Giant foxtail plant response rating: 9
Giant foxtail; [6]
  Giant foxtail plant response rating: 9
Giant foxtail; [7]
  Giant foxtail plant response rating: 9
Giant foxtail; [8]
  Giant foxtail plant response rating: 10
pigweed; [1]
  Plant response rating, Redroot pigweed: 5
pigweed; [2]
  Redroot pigweed plant response rating: 6
pigweed; [3]
  Redroot pigweed plant response rating: 8
pigweed; [5]
  Redroot pigweed plant response rating: 9
pigweed; [6]
  Redroot pigweed plant response rating: 10
pigweed; [7]
  Redroot pigweed plant response rating: 6
pigweed; [8]
  Redroot pigweed plant response rating: 10
Wild oat; [1]
  Plant response rating, Wild oats: 0
Wild oat; [3]
  Wild oats plant response rating: 2
Wild oat; [5]
  Wild oats plant response rating: 3
Wild oat; [6]
  Wild oats plant response rating: 7
Wild oat; [7]
  Wild oats plant response rating: 2
Wild oat; [8]
  Wild oats plant response rating: 10
